# In BindingDB's records for doi:10.1074/jbc.M113.533562 (Case Western Reserve University, 2014):
# What was measured:
# Beta-lactamase OXA-1 = Beta-lactamase OXA-1 (Escherichia coli, UniProt P13661); assay: Kinetic Assay; details: pH 7.2
# Method: (§1) Steady-state kinetics were performed on an Agilent 8453 diode array spectrophotometer (Palo Alto, CA) in 50 mM sodium phosphate buffer (pH 7.2) supplemented with 20 mM NaHCO3.
# Oxa40 = Oxa40 (Acinetobacter baumannii, UniProt Q8RLA6); assay: Kinetic Assay; details: pH 7.2
# Chain of Oxa40 (Q8RLA6 whole entry): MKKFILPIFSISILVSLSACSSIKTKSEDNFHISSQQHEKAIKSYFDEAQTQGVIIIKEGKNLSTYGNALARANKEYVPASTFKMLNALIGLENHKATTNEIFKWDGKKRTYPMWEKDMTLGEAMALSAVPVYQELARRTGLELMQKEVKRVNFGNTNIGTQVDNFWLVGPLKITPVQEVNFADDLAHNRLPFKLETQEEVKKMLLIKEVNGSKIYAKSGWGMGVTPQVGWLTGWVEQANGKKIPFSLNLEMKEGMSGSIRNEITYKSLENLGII
# Method: as §1
# Chain of Beta-lactamase OXA-1 (P13661 whole entry): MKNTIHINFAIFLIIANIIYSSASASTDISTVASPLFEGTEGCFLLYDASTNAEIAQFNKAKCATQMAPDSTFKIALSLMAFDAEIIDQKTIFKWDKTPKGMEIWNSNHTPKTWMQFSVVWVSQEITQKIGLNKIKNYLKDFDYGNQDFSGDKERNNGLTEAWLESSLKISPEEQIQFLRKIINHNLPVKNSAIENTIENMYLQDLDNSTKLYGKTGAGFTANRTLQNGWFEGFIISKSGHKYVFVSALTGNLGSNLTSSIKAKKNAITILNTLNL
IC50 (Beta-lactamase OXA-1) [nM],Ki (Beta-lactamase OXA-1) [nM],IC50 (Oxa40) [nM],Ki (Oxa40) [nM],Structure (SMILES)
60,380,160,150,O=C(O)C1=CS[C@@H]2/C(=C\c3cn4c(n3)COCC4)C(=O)N12 [Penem 3]
30,50,150,30,O=C(O)C1=CS[C@@H]2/C(=C\c3cc4n(n3)CSC4)C(=O)N12 [Penem 1]
